For series [1], the system named is human primary CD4+ T cells. As to the kind of experiment: T cell activation markers CD25 and CD69. Particulars: 24 and 72 hours; two healthy donors. The class given is cell-based. How it is done: (§1) 24. Activation markers, apoptosis and viability of primary CD4+ T cells: Activation markers, namely CD25 and CD69 were analyzed as described previously^55. Briefly, CD4+ T cells were treated with DMSO, compound, or PMA/Ionomycin for 24 and 72 hours. Cells were collected, washed with PBS and stained for 30 min at 4° C. with α-CD25-APC (17-0259-42, eBioscience) and α-CD69-FITC (11-0699-42, eBioscience). Following two washes with PBS, cells were fixed with 1% HCHO at 4° C. and analyzed by flow cytometry with Becton Dickinson Fortessa instrument. To determine percent of apoptotic cells after treatment cells were stimulated for 24 and 72 hours and stained with anti-AnnexinV-PE (BD Biosciences, cat. 556454) in the presence of 2.5 mM CaCl2 for 20 min at 4° C. Cells were analyzed by Becton Dickinson Fortessa flow cytometer. Data represents the average of six experiments performed on cells from different healthy donors. Viability of ex-vivo infected primary CD4+ cells was determined by flow cytometry on the basis of forward versus side scatter analysis. 25. FAIRE: FAIRE experiment was performed as described, with minor modifications^55. Eighteen hours prior to analysis, J-Lat 11.1 cells were treated with BAFi's where indicated. Cells were fixed for 10 min by adding formaldehyde to a final concentration of 1% at room temperature. Twenty million cells were used per FAIRE experiment. […]

In series [2] the test system is latent HIV-1 in ex vivo infected human CD4+ T cells. The series is described as follows: Ex vivo HIV latency model (Lassen), luciferase readout. Type of series: cell-based. How it is done: [drawing 27] i. BRD-K25923209: To Macrocycle 2141-039b (0.804 g, 1.550 mmol) dissolved in MeOH (Volume: 15.50 ml) was added tin(II) chloride dihydrate (3.50 g, 15.50 mmol). […] Upon completion, the reaction mixture was concentrated and the resulting residue was dissolved in EtOAc and washed with 2 M aq. KOH (2×). The combined aqueous layers were washed with EtOAc (4×). The resulting organic layers were washed with brine, saturated aqueous NaHCO3, water, and brine, dried over MgSO4, filtered, and concentrated. […] BRD-K80443127: A screwtop vial was charged with aniline (BRD-K25923209) (43.3 mg, 0.089 mmol) and CH2Cl2 (Volume: 886 μl, Density: 1.325 g/ml). Isopropyl chloroformate (115 μl, 0.115 mmol) and DIEA (46.4 μl, 0.266 mmol) were added dropwise and reaction stirred under ambient conditions for 1 h. […] BRD-K04244835: A 2.5 mL microwave vial was charged with aniline (BRD-K25923209) (40 mg, 0.082 mmol) and EtOH (Volume: 819 μl, Density: 0.81 g/ml). Squaramide (CRE-III-001) (20.75 mg, 0.098 mmol), DIEA (42.8 μl, 0.246 mmol), and DMAP (2.000 mg, 0.016 mmol) were added in sequence and the vial was sealed. […] 9. […] 10. […] 11.

In series [3] the test system is latent HIV-1 in CD4+ T cells from c-ART treated HIV-1 infected patients. As to the kind of experiment: HIV latency reversal from patient samples (cell associated HIV Pol mRNA). Type of series: cell-based, human. How it is done: 23. HIV latency reversal from patient samples: All patients were older than 18 years, c-ART treated for at least 3 years, and their viral loads were below 50 copies/ml for more than 12 months with no blips in the past two years. CD4+ T cells from aviremic HIV+ patients were isolated as described previously^55 with minor modifications. Briefly, frozen PBMCs were cultured in RPMI medium over-night to recover. Then next day CD4+ T cells were isolated twice (enriched CD4+ T cells were subjected to a second round of CD4+ T cell enrichment) and left for 6 hrs to recover. Three million cells were treated with DMSO, 10 μM BRD-K80443127, 200 nM Prostratin, 10 μM BRD-K80443127 and 200 nM prostratin, and αCD3/CD28 magnetic beads (at cell:bead ration 1:1) as a positive control in triplicate. After 24 hours cells were lysed in TRIreagent (Sigma), total RNA was isolated with Total RNA Zol-Out (A&A Biotechnology) kit and cDNA was synthetized using random primers and Superscript II Reverse Transcriptase (Life Technologies). Detection of cellular associated pol RNA was performed as described previously (Pol: For […] (SEQ ID NO:15), Rev-[…] (SEQ ID NO: 16))^55. This study was conducted in accordance with the ethical principles of the Declaration of Helsinki. HIV-1 infected patient volunteers were informed and provided signed consent to participate in the study. The study protocol was approved by The Netherlands Medical Ethics Committee (MEC-2012-583). cDNA generated from control and 10 μM BRD-K80443127 treated samples was used to assess expression of BAF target genes biomarker genes-p21 and C-MYC.

In series [4] the test system is HIV-1 5′-LTR (Nuc-1). As to the kind of experiment: FAIRE assay in J-Lat 11.1. Particulars: overnight compound treatment. The class given is cell-based. How it is done:
as §1

“Also recorded” adds a separate entry of the source.

In the case of `CO[C@H]1CN(C)C(=O)c2cc(NC(=O)OC(C)C)ccc2OC[C@H](C)N(Cc2ccc(-c3ccccn3)cc2)C[C@@H]1C` [BRD-K80443127], the “CD25 and CD69 expression” value in series [1] was “no effect”. In addition, in series [2] (24 h treatment), the “latency reversal (transcription of latent HIV-1)” value was “efficiently triggered HIV transcription”. Also, in series [2] (compared to single agent treatments), the “latency reversal in combination with other latency reversal agents” value is “potentiated the effect of other latency reversal agents”. The “cell associated HIV mRNA (Pol), response” value in series [3] (Patient 1 (one patient), single agents, 24 hours) is reported as “responded; also recorded: significant increase”. Besides, in series [3] (all three patients), the “potentiation of prostratin activity” value is recorded as “significant potentiation of prostratin activity”. The “cell associated HIV-1 POL” value in series [3] (patient 2 and 3, 24 hours) is listed as “did not result in a significant increase”. The “chromatin accessibility at the Nuc-1 position of the 5′ LTR” value in series [4] is reported as “increased chromatin accessibility”.

For the origin of these results see patent US11980613B2, “Methods for reversing HIV latency using BAF complex modulating compounds” (priority 2018, dated 2024).
